Source: PMC7156458, “Synthetic biology based construction of biological activity-related library of fungal decalin-containing diterpenoid pyrones” (Nature Communications, 2020)

Target: Aβ42 (Homo sapiens, UniProt P05067)
Assay: Th-T (thioflavin-T) assay of Aβ42 aggregation
Format: biochemical
Details: for Th-T fluorescence, mean of three wells: compound at 50

Aβ42, sequence (P05067 672-713): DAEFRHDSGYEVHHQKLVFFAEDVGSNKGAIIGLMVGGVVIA

## C=C1CC[C@@H]2[C@](C)(CC[C@H]3O[C@H](C=C(C)C)C[C@@]23C)[C@@H]1Cc1c(OC)oc(CO)c(C(=O)OC)c1=O [Compound 21]
Reading M54 of time course
  Th-T fluorescence, mean of three wells: 0.2222
Reading M55 of time course
  Th-T fluorescence, mean of three wells: 0.2197
Reading M56 of time course
  Th-T fluorescence, mean of three wells: 0.2209
Reading M57 of time course
  Th-T fluorescence, mean of three wells: 0.2237
Reading M58 of time course
  Th-T fluorescence, mean of three wells: 0.2252
Reading M59 of time course
  Th-T fluorescence, mean of three wells: 0.2206
Reading M60 of time course
  Th-T fluorescence, mean of three wells: 0.2276
Reading M61 of time course
  Th-T fluorescence, mean of three wells: 0.2285
Reading M62 of time course
  Th-T fluorescence, mean of three wells: 0.2296
Concentration 10, unit not given, time-course reading M129
  Th-T fluorescence of Aβ42 with compound, mean of three wells (Fig. 7a source data): 1.701
Concentration 10, unit not given, time-course reading M130
  Th-T fluorescence of Aβ42 with compound, mean of three wells (Fig. 7a source data): 1.706
Concentration 10, unit not given, time-course reading M131
  Th-T fluorescence of Aβ42 with compound, mean of three wells (Fig. 7a source data): 1.73
Concentration 10, unit not given, time-course reading M132
  Th-T fluorescence of Aβ42 with compound, mean of three wells (Fig. 7a source data): 1.6977
Concentration 10, unit not given, time-course reading M133
  Th-T fluorescence of Aβ42 with compound, mean of three wells (Fig. 7a source data): 1.7165
Concentration 10, unit not given, time-course reading M134
  Th-T fluorescence of Aβ42 with compound, mean of three wells (Fig. 7a source data): 1.726
Concentration 10, unit not given, time-course reading M135
  Th-T fluorescence of Aβ42 with compound, mean of three wells (Fig. 7a source data): 1.717
Concentration 10, unit not given, time-course reading M136
  Th-T fluorescence of Aβ42 with compound, mean of three wells (Fig. 7a source data): 1.738
Concentration 10, unit not given, time-course reading M137
  Th-T fluorescence of Aβ42 with compound, mean of three wells (Fig. 7a source data): 1.7043
Concentration 10, unit not given, time-course reading M138
  Th-T fluorescence of Aβ42 with compound, mean of three wells (Fig. 7a source data): 1.717
Concentration 10, unit not given, time-course reading M139
  Th-T fluorescence of Aβ42 with compound, mean of three wells (Fig. 7a source data): 1.708
Concentration 10, unit not given, time-course reading M140
  Th-T fluorescence of Aβ42 with compound, mean of three wells (Fig. 7a source data): 1.723
Concentration 10, unit not given, time-course reading M141
  Th-T fluorescence of Aβ42 with compound, mean of three wells (Fig. 7a source data): 1.719
Concentration 10, unit not given, time-course reading M142
  Th-T fluorescence of Aβ42 with compound, mean of three wells (Fig. 7a source data): 1.725
Concentration 10, unit not given, time-course reading M143
  Th-T fluorescence of Aβ42 with compound, mean of three wells (Fig. 7a source data): 1.723
Concentration 10, unit not given, time-course reading M144
  Th-T fluorescence of Aβ42 with compound, mean of three wells (Fig. 7a source data): 1.716
Concentration 10, unit not given, time-course reading M145
  Th-T fluorescence of Aβ42 with compound, mean of three wells (Fig. 7a source data): 1.741
Concentration 20, unit not given, time-course reading M129
  Th-T fluorescence of Aβ42 with compound, mean of three wells (Fig. 7a source data): 0.972
Concentration 20, unit not given, time-course reading M130
  Th-T fluorescence of Aβ42 with compound, mean of three wells (Fig. 7a source data): 0.9564
Concentration 20, unit not given, time-course reading M131
  Th-T fluorescence of Aβ42 with compound, mean of three wells (Fig. 7a source data): 0.9524
Concentration 20, unit not given, time-course reading M132
  Th-T fluorescence of Aβ42 with compound, mean of three wells (Fig. 7a source data): 0.9585
Concentration 20, unit not given, time-course reading M133
  Th-T fluorescence of Aβ42 with compound, mean of three wells (Fig. 7a source data): 0.9579
Concentration 20, unit not given, time-course reading M134
  Th-T fluorescence of Aβ42 with compound, mean of three wells (Fig. 7a source data): 0.9622
Concentration 20, unit not given, time-course reading M135
  Th-T fluorescence of Aβ42 with compound, mean of three wells (Fig. 7a source data): 0.9636
Concentration 20, unit not given, time-course reading M136
  Th-T fluorescence of Aβ42 with compound, mean of three wells (Fig. 7a source data): 0.9565
Concentration 20, unit not given, time-course reading M137
  Th-T fluorescence of Aβ42 with compound, mean of three wells (Fig. 7a source data): 0.947
Concentration 20, unit not given, time-course reading M138
  Th-T fluorescence of Aβ42 with compound, mean of three wells (Fig. 7a source data): 0.9539
Concentration 20, unit not given, time-course reading M139
  Th-T fluorescence of Aβ42 with compound, mean of three wells (Fig. 7a source data): 0.9666
Concentration 20, unit not given, time-course reading M140
  Th-T fluorescence of Aβ42 with compound, mean of three wells (Fig. 7a source data): 0.9636
Concentration 20, unit not given, time-course reading M141
  Th-T fluorescence of Aβ42 with compound, mean of three wells (Fig. 7a source data): 0.9513
Concentration 20, unit not given, time-course reading M142
  Th-T fluorescence of Aβ42 with compound, mean of three wells (Fig. 7a source data): 0.9675
Concentration 20, unit not given, time-course reading M143
  Th-T fluorescence of Aβ42 with compound, mean of three wells (Fig. 7a source data): 0.9558
Concentration 20, unit not given, time-course reading M144
  Th-T fluorescence of Aβ42 with compound, mean of three wells (Fig. 7a source data): 0.9694
Concentration 20, unit not given, time-course reading M145
  Th-T fluorescence of Aβ42 with compound, mean of three wells (Fig. 7a source data): 0.9486
Concentration 50, unit not given, time-course reading M129
  Th-T fluorescence of Aβ42 with compound, mean of three wells (Fig. 7a source data): 0.5005
Concentration 50, unit not given, time-course reading M130
  Th-T fluorescence of Aβ42 with compound, mean of three wells (Fig. 7a source data): 0.4954
Concentration 50, unit not given, time-course reading M131
  Th-T fluorescence of Aβ42 with compound, mean of three wells (Fig. 7a source data): 0.4987
Concentration 50, unit not given, time-course reading M132
  Th-T fluorescence of Aβ42 with compound, mean of three wells (Fig. 7a source data): 0.5011
Concentration 50, unit not given, time-course reading M133
  Th-T fluorescence of Aβ42 with compound, mean of three wells (Fig. 7a source data): 0.5033
Concentration 50, unit not given, time-course reading M134
  Th-T fluorescence of Aβ42 with compound, mean of three wells (Fig. 7a source data): 0.5026
Concentration 50, unit not given, time-course reading M135
  Th-T fluorescence of Aβ42 with compound, mean of three wells (Fig. 7a source data): 0.5014
Concentration 50, unit not given, time-course reading M136
  Th-T fluorescence of Aβ42 with compound, mean of three wells (Fig. 7a source data): 0.502
Concentration 50, unit not given, time-course reading M137
  Th-T fluorescence of Aβ42 with compound, mean of three wells (Fig. 7a source data): 0.5003
Concentration 50, unit not given, time-course reading M138
  Th-T fluorescence of Aβ42 with compound, mean of three wells (Fig. 7a source data): 0.5022
Concentration 50, unit not given, time-course reading M139
  Th-T fluorescence of Aβ42 with compound, mean of three wells (Fig. 7a source data): 0.5032
Concentration 50, unit not given, time-course reading M140
  Th-T fluorescence of Aβ42 with compound, mean of three wells (Fig. 7a source data): 0.5012
Concentration 50, unit not given, time-course reading M141
  Th-T fluorescence of Aβ42 with compound, mean of three wells (Fig. 7a source data): 0.504
Concentration 50, unit not given, time-course reading M142
  Th-T fluorescence of Aβ42 with compound, mean of three wells (Fig. 7a source data): 0.5037
